Reference: patent US20220401468A1 (priority 2021, published 2022)

Columns and labels:
[1] = molecular target: SARS-CoV-2 spike protein (Severe acute respiratory syndrome coronavirus 2, UniProt P0DTC2); conditions: cited from earlier work
[2] = tested on: SARS-CoV-2 (USA-WA1/2020); format: cell-based; conditions: Vero-E6 cells, 400 PFU/well, viral titer from plaque assay at 24 h post-infection
[3] = human, in vivo; cited from earlier work

| Substance | binding affinity [1] | IC50, SARS-CoV-2 infection [2] [µg/mL] | probability of survival [3] | risk of significant bleeding [3] | serum IL-6 levels [3] |
| --- | --- | --- | --- | --- | --- |
| Heparin sodium salt | high-picomolar affinity | 0.05 | increased the probability of survival | 10-15% |  |
| low-molecular-weight heparin |  |  |  |  | lower serum IL-6 levels |
